# Experimental data taken from patent US6340698B1, “Antifungal solutions” (priority 1999, dated 2002).
# Key:
# Type in all cases: physicochemical
# [1] = Solubility in strong acids (glacial acetic acid, concentrated hydrochloric acid)
# Source text: For example, 1 g of free itraconazole can be dissolved in about 3 g of glacial acetic acid or about 3 to 4 g of concentrated hydrochloric acid (i.e. 36-38% HCl in water).
# Solubility in water = assay: Solubility in water
# [2] = Dilution with water of a solution in strong acid; conditions: solution in strong acid diluted with water to weaken the acid
# Procedure: However, strongly acidic solutions are unsuitable for oral administration, and if a solution of itraconazole or saperconazole in strong acid is diluted with water to weaken the acid, the itraconazole or saperconazole precipitates.
solubility in strong acids [1],solubility in water (Solubility in water),behaviour when solution in strong acid is diluted with water [2],SMILES
soluble in strong acids,practically insoluble in water,–,"CCC(C)n1ncn(-c2ccc(N3CCN(c4ccc(OCC5COC(Cn6cncn6)(c6ccc(Cl)cc6Cl)O5)cc4)CC3)cc2)c1=O (centres unmarked) [itraconazole, Itraconazole]"
soluble in strong acids,practically insoluble in water,precipitates,CCC(C)n1ncn(-c2ccc(N3CCN(c4ccc(OC[C@H]5CO[C@](Cn6cncn6)(c6ccc(F)cc6F)O5)cc4)CC3)cc2)c1=O (some centres unmarked) [saperconazole]
